Source: US20050009840A1 (SUGEN, INC., priority 2003, published 2005)
Several values for one entry are separate records, joined by “and”; a condition that tells them apart may be missing. Equal entries are not always repeated.

Biological target: T1, Met kinase domain (GST fusion protein) (Homo sapiens, UniProt P08581)
T1 construct: Purified GST fusion protein containing the Met kinase domain
Assay: Met transphosphorylation assay (ELISA, poly(glu-tyr) substrate);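 also: Cell-free ELISA with plate-bound poly(Glu:Tyr 4:1) phosphorylated by GST-fused Met kinase domain plus ATP and Mn2+, phosphotyrosine detected by anti-phosphotyrosine antibody with HRP and ABTS read-out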
Assay type: biochemical
Conditions: read-out: Met IC50

T1 sequence (P08581 1078-1345 limits assumed): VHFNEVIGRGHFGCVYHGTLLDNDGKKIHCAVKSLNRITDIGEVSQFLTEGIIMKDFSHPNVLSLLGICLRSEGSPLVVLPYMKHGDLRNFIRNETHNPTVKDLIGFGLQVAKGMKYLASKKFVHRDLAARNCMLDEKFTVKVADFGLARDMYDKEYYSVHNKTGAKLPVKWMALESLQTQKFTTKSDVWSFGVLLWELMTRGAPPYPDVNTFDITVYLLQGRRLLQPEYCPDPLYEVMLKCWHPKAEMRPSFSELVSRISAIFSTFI

Row | IC50 | SMILES
1 | 1.51 µM | Nc1ncc(-c2ccc(C(=O)N3CCC[C@@H]3CN3CCCC3)cc2)cc1OCc1ccc(F)cc1C(F)(F)F [Example I-111, {4-[6-amino-5-(4-fluoro-2-trifluoromethyl-benzyloxy)-pyridin-3-yl]-phenyl)[(2R)-2-pyrrolidin-1-ylmethyl-pyrrolidin-1-yl]-methanone]
2 | 0.15 µM | Nc1ncc(-c2ccc(C(=O)N3CCC[C@@H]3CN3CCCC3)cc2)cc1OCc1c(F)cccc1C(F)(F)F [Example I-112, {4-[6-Amino-5-(2-fluoro-2-trifluoromethyl-benzyloxy)-pyridin-3-yl]-phenyl}-[(2R)-2-pyrrolidin-1-ylmethyl-pyrrolidin-1-yl]-methanone]
3 | 1.21 µM | Nc1ncc(-c2ccc(C(=O)N3CCC[C@@H]3CN3CCCC3)cc2)cc1OCc1c(F)cccc1F [Example I-122]
4 | 1.36 µM | Nc1ncc(-c2ccc(C(=O)N3CCC[C@H]3CN3CCCC3)cc2)cc1OCc1c(F)cccc1F [Example I-123, {4-[6-Amino-5-(2,6-difluoro-benzyloxy)-pyridin-3-yl]-phenyl}-[(2S)-2-pyrrolidin-1-ylmethyl-pyrrolidin-1-yl]-methanone]
5 | 14.7 µM | Nc1ncc(-c2ccc(OCC(=O)O)cc2)cc1OCc1c(F)cccc1F [Example I-125, {4-[6-Amino-5-(2,6-difluoro-benzyloxy)-pyridin-3-yl]-phenoxy}-acetic acid]
6 | 3.99 µM | Nc1ncc(-c2ccc(O)cc2)cc1OCc1c(F)cccc1Cl [Example I-128, 4-[6-Amino-5-(2-chloro-6-fluoro-benzyloxy)-pyridin-3-yl]-phenol]
7 | 19 µM | Nc1ncc(-c2ccc(O)cc2)cc1OCc1ccc(F)cc1Cl [Example I-129, 4-[6-Amino-5-(2-chloro-4-fluoro-benzyloxy)-pyridin-3-yl]-phenol]
8 | 9 µM and > 20 µM | Nc1ncc(-c2ccc(O)cc2)cc1OCc1ccc(Cl)cc1Cl [Example I-130, 4-[6-Amino-5-(2,4-dichloro-benzyloxy)-pyridin-3-yl]-phenol]
9 | 19 µM | N#Cc1ccccc1COc1cc(-c2ccc(O)cc2)cnc1N [Example I-131, 2-[2-Amino-5-(4-hydroxy-phenyl)-pyridin-3-yloxymethyl]-benzonitrile]
10 | 13.8 µM | Nc1ncc(-c2ccc(O)cc2)cc1OCc1ccccc1Cl [Example I-133, 4-[6-Amino-5-(2-chloro-benzyloxy)-pyridin-3-yl]-phenol]
11 | 4.18 µM | CS(=O)(=O)Nc1ccc(-c2cnc(N)c(OCc3ccccc3C#N)c2)cc1 [Example I-135, N-{4-[6-Amino-5-(2-cyano-benzyloxy)-pyridin-3-yl]-phenyl}-methanesulfonamide]
12 | > 20 µM | CS(=O)(=O)Nc1ccc(-c2cnc(N)c(OCc3ccccc3C(N)=O)c2)cc1 [Example I-136, 2-[2-Amino-5-(4-methanesulfonylamino-phenyl)-pyridin-3-yloxymethyl]-benzamide]
13 | > 20 µM | CS(=O)(=O)Nc1ccc(-c2cnc(N)c(OCc3ccccc3C(=O)O)c2)cc1 [Example I-137, 2-[2-Amino-5-(4-methanesulfonylamino-phenyl)-pyridin-3-yloxymethyl]-benzoic acid]
14 | > 20 µM | CN1CCN(C(=O)c2ccccc2COc2cc(-c3ccc(NS(C)(=O)=O)cc3)cnc2N)CC1 [Example I-138, N-(4-{6-Amino-5-[2-(4-methyl-piperazine-1-carbonyl)-benzyloxy]-pyridin-3-yl}-phenyl)-methanesulfonamide]
15 | > 20 µM | CS(=O)(=O)Nc1ccc(-c2cnc(N)c(OCc3ccccc3C(=O)NCCO)c2)cc1 [Example I-139, 2-[2-Amino-5-(4-methanesulfonylamino-phenyl)-pyridin-3-yloxymethyl]-N-(2-hydroxy-ethyl)-benzamide]
16 | > 20 µM | CC(C)CNC(=O)c1ccccc1COc1cc(-c2ccc(NS(C)(=O)=O)cc2)cnc1N [Example I-140, 2-[2-Amino-5-(4-methanesulfonylamino-phenyl)-pyridin-3-yloxymethyl]-N-isobutyl-benzamide]
17 | 0.63 µM | Nc1ncc(-c2ccc(C(=O)N3CC[C@H](N)C3)cc2)cc1OCc1c(F)cccc1Cl [Example I-145, {4-[6-Amino-5-(2-chloro-6-fluoro-benzyloxy)-pyridin-3-yl]-phenyl}-[(3S)-3-amino-pyrrolidin-1-yl]-methanone]
18 | 1.94 µM | CN1CCN(C(=O)c2ccc(-c3cnc(N)c(OCc4c(F)cccc4Cl)c3)cc2)CC1 [Example I-146, {4-[6-Amino-5-(2-chloro-6-fluoro-benzyloxy)-pyridin-3-yl]-phenyl}-(4-methyl-piperazin-1-yl)-methanone]
19 | 1.45 µM | CC(=O)N1CCN(C(=O)c2ccc(-c3cnc(N)c(OCc4c(F)cccc4Cl)c3)cc2)CC1 [Example I-147, 1-(4-{4-(6-Amino-5-(2-chloro-6-fluoro-benzyloxy)-pyridin-3-yl]-benzoyl}-piperazin-1-yl)-ethanone]
20 | 6.4 µM | Nc1ncc(-c2ccc(C(=O)NCCN3CCOCC3)cc2)cc1OCc1c(F)cccc1Cl [Example I-148, 4-[6-Amino-5-(2-chloro-6-fluoro-benzyloxy)-pyridin-3-yl]-N-(2-morpholin-4-yl-ethyl)-benzamide]
21 | 5.6 µM | Nc1ncc(-c2ccc(C(=O)NCCCN3CCOCC3)cc2)cc1OCc1c(F)cccc1Cl [Example I-149, 4-[6-Amino-5-(2-chloro-6-fluoro-benzyloxy)-pyridin-3-yl]-N-(3-morpholin-4-yl-propyl)-benzamide]
22 | 1.44 µM | Nc1ncc(-c2ccc(C(=O)N3CC[C@H](N)C3)cc2)cc1OCc1ccccc1Cl [Example I-154, {4-[6-Amino-5-(2-chloro-benzyloxy)-pyridin-3-yl]-phenyl}-[(3S)-3-amino-pyrrolidin-1-yl]-methanone]
23 | 2.1 µM | CN1CCN(C(=O)c2ccc(-c3cnc(N)c(OCc4ccccc4Cl)c3)cc2)CC1 [Example I-156, {4-[6-Amino-5-(2-chloro-benzyloxy)-pyridin-3-yl]-phenyl}-(4-methyl-piperazin-1-yl)-methanone]
24 | 3.8 µM | CC(=O)N1CCN(C(=O)c2ccc(-c3cnc(N)c(OCc4ccccc4Cl)c3)cc2)CC1 [Example I-157, 1-(4-{4-[6-Amino-5-(2-chloro-benzyloxy)-pyridin-3-yl]-benzoyl}-piperazin-1-yl)-ethanone]
25 | 8.9 µM | Nc1ncc(-c2ccc(C(=O)NCCN3CCOCC3)cc2)cc1OCc1ccccc1Cl [Example I-158, 4-[6-Amino-5-(2-chloro-benzyloxy)-pyridin-3-yl]-N-(2-morpholin-4-yl-ethyl)-benzamide]

Row | SMILES | IC50
26 | Nc1ncc(-c2ccc(C(=O)N3CCC[C@@H]3CN3CCCC3)cc2)cc1OCc1cc(F)ccc1C(F)(F)F [Example I-113, {4-(6-Amino-5-(5-fluoro-2-trifluoromethyl-benzyloxy)pyridin-3-yl]-phenyl}-[(2R)-2-pyrrolidin-1-ylmethyl-pyrrolidin-1-yl]-methanone] | 1.27 µM
27 | CC(Oc1cc(-c2ccc(C(=O)N3CCC[C@@H]3CN3CCCC3)cc2)cnc1N)c1ccccc1C(F)(F)F (stereo partly drawn) [Example I-114, (4-{6-Amino-5-[1-(2-trifluoromethyl-phenyl)-ethoxy]-pyridin-3-yl}-phenyl)-[(2R)-2-pyrrolidin-1-ylmethyl-pyrrolidin-1-yl]-methanone] | 0.33 µM
28 | Nc1ncc(-c2ccc(C(=O)N3CCC[C@@H]3CN3CCCC3)cc2)cc1OCc1ccccc1Br [Example I-115, {4-[6-Amino-5-(2-bromo-benzyloxy)-pyridin-3-yl]-phenyl}-[(2R)-2-pyrrolidin-1-ylmethyl-pyrrolidin-1-yl]-methanone] | 1.75 µM
29 | Nc1ncc(-c2ccc(C(=O)N3CCC[C@@H]3CN3CCCC3)cc2)cc1OCc1cccc(F)c1C(F)(F)F [Example I-116, {4-(6-Amino-5-(3-fluoro-2-trifluoromethyl-benzyloxy)-pyridin-3-yl]-phenyl}-[(2R)-2-pyrrolidin-1-ylmethyl-pyrrolidin-1-yl]-methanone] | 0.025 µM
30 | Nc1ncc(-c2ccc(O)cc2)cc1OCc1c(F)cccc1F [Example I-118, 4-[6-Amino-5-(2,6-difluoro-benzyloxy)-pyridin-3-yl]-phenyl] | 3.79 µM
31 | Nc1ncc(-c2cccc3[nH]ccc23)cc1OCc1c(F)cccc1F [Example I-119, 3-(2,6-Difluoro-benzyloxy)-5-(1H-indol-4-yl)-pyridin-2-ylamine] | 5.8 µM
32 | Nc1ncc(-c2ccc(OCC(=O)N3CCC[C@@H]3CN3CCCC3)cc2)cc1OCc1c(F)cccc1F [Example I-126, 2-{4-[6-Amino-5-(2,6-difluoro-benzyloxy)-pyridin-3-yl]-phenoxy}-1-[(2R)-2-pyrrolidin-1-ylmethyl-pyrrolidin-1-yl]-ethanone] | 3.58 µM
33 | Nc1ncc(-c2ccc(OCC(=O)N3CCC[C@H]3CN3CCCC3)cc2)cc1OCc1c(F)cccc1F [Example I-127, 2-{4-[6-Amino-5-(2,6-difluoro-benzyloxy)-pyridin-3-yl]-phenoxy}-1-[(2S)-2-pyrrolidin-1-ylmethyl-pyrrolidin-1-yl]-ethanone] | 5.43 µM
34 | Nc1ncc(-c2ccc(O)cc2)cc1OCc1ccccc1C(F)(F)F [Example I-132, 4-[6-Amino-5-(2-trifluoromethyl-benzyloxy)-pyridin-3-yl]-phenol] | 3.67 µM
35 | CC(C)(C)c1ccc(COc2cc(-c3ccc(O)cc3)cnc2N)cc1 [Example I-134, 4 [6-Amino-5-(4-teert-butyl-benzyloxy)-pyridin-3-yl]-phenol] | 4 µM
36 | CN(C)[C@H]1CCN(C(=O)c2ccc(-c3cnc(N)c(OCc4c(F)cccc4Cl)c3)cc2)C1 [Example I-144, {4-[6-Amino-5-(2-chloro-6-fluoro-benzyloxy)-pyridin-3-yl]-phenyl}-[(3S)-3-dimethylamino-pyrrolidin-1-yl]-methanone] | 1.7 µM
37 | CN(C)[C@H]1CCN(C(=O)c2ccc(-c3cnc(N)c(OCc4ccccc4Cl)c3)cc2)C1 [Example I-153, {4-[6-Amino-5-(2-chloro-benzyloxy)-pyridin-3-yl]-phenyl}-[(3S)-3-dimethylamino-pyrrolidin-1-yl]-methanone] | 12.7 µM
38 | Nc1ncc(-c2ccc(C(=O)NCCCN3CCOCC3)cc2)cc1OCc1ccccc1Cl [Example I-159, 4-[6-Amino-5-(2-chloro-benzyloxy)-pyridin-3-yl]-N-(3-morpholin-4-yl-propyl)-benzamide] | 4.5 µM
